Converted amounts (≈) assume the structure as drawn.
Target: T1, Bifunctional epoxide hydrolase 2 (Homo sapiens, UniProt P34913)
T1 sequence (P34913 whole entry): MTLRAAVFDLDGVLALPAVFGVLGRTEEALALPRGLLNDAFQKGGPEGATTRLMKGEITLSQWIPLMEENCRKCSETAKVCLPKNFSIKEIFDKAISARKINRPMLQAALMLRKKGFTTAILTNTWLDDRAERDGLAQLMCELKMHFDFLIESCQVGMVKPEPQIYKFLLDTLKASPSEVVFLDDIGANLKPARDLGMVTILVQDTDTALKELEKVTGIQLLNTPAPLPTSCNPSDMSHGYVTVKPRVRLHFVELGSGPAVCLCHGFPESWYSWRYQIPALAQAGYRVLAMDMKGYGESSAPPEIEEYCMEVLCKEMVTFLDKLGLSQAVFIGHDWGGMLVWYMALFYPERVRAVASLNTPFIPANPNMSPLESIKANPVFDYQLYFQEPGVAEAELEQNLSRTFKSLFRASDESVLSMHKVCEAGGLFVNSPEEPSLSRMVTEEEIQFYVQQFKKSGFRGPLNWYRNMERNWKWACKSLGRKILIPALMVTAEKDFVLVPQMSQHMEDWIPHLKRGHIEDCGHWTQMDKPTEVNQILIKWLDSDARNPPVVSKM
Test: not given
Conditions: not given

SMILES	IC50 [nM]
O=C(Nc1nccs1)NC12CC3CC(CC(C3)C1)C2	83
O=C(Nc1nnc(C2CC2)o1)NC1C2CC3CC(C2)CC1C3 (stereo not drawn)	2410
CCn1nc(NC(=O)NC23CC4CC(CC(C4)C2)C3)cc1C	2510
CCn1nc(NC(=O)NC2C3CC4CC(C3)CC2C4)cc1C (stereo not drawn)	2460

Tested on: not given
Test: not given
Conditions: buffer, 18 h, pH 7.4

SMILES	solubility [µg/mL]
CCn1nc(NC(=O)NC23CC4CC(CC(C4)C2)C3)cc1C	13.2 (≈ 43.6 µM)

Tested on: Vero
Test: cells
Conditions: Chlorocebus sabaeus, 72 h

SMILES	IC50 [µg/mL]
O=C(Nc1nccs1)NC12CC3CC(CC(C3)C1)C2	22 (≈ 79.3 µM)
O=C(Nc1nnc(C2CC2)o1)NC1C2CC3CC(C2)CC1C3 (stereo not drawn)	180 (≈ 595 µM)
CCn1nc(NC(=O)NC2C3CC4CC(C3)CC2C4)cc1C (stereo not drawn)	163 (≈ 539 µM)

Tested on: Pseudomonas aeruginosa
Test: microbe, parasite or virus in culture
Conditions: not given

SMILES	MIC [µg/mL]
O=C(Nc1nccs1)NC12CC3CC(CC(C3)C1)C2	> 200
O=C(Nc1nnc(C2CC2)o1)NC1C2CC3CC(C2)CC1C3 (stereo not drawn)	> 200
CCn1nc(NC(=O)NC23CC4CC(CC(C4)C2)C3)cc1C	> 200
CCn1nc(NC(=O)NC2C3CC4CC(C3)CC2C4)cc1C (stereo not drawn)	> 200

Tested on: Proteus vulgaris
Test: microbe, parasite or virus in culture
Conditions: not given

SMILES	MIC [µg/mL]
O=C(Nc1nccs1)NC12CC3CC(CC(C3)C1)C2	> 200
O=C(Nc1nnc(C2CC2)o1)NC1C2CC3CC(C2)CC1C3 (stereo not drawn)	> 200
CCn1nc(NC(=O)NC23CC4CC(CC(C4)C2)C3)cc1C	> 200
CCn1nc(NC(=O)NC2C3CC4CC(C3)CC2C4)cc1C (stereo not drawn)	> 200

Tested on: Proteus mirabilis
Test: microbe, parasite or virus in culture
Conditions: not given

SMILES	MIC [µg/mL]
O=C(Nc1nccs1)NC12CC3CC(CC(C3)C1)C2	> 200
O=C(Nc1nnc(C2CC2)o1)NC1C2CC3CC(C2)CC1C3 (stereo not drawn)	> 200
CCn1nc(NC(=O)NC23CC4CC(CC(C4)C2)C3)cc1C	> 200
CCn1nc(NC(=O)NC2C3CC4CC(C3)CC2C4)cc1C (stereo not drawn)	> 200

Tested on: Klebsiella pneumoniae
Test: microbe, parasite or virus in culture
Conditions: not given

SMILES	MIC [µg/mL]
O=C(Nc1nccs1)NC12CC3CC(CC(C3)C1)C2	> 200
O=C(Nc1nnc(C2CC2)o1)NC1C2CC3CC(C2)CC1C3 (stereo not drawn)	> 200
CCn1nc(NC(=O)NC23CC4CC(CC(C4)C2)C3)cc1C	> 200
CCn1nc(NC(=O)NC2C3CC4CC(C3)CC2C4)cc1C (stereo not drawn)	> 200

Tested on: Escherichia coli
Test: microbe, parasite or virus in culture
Conditions: K-12

SMILES	MIC [µg/mL]
O=C(Nc1nccs1)NC12CC3CC(CC(C3)C1)C2	> 200
O=C(Nc1nnc(C2CC2)o1)NC1C2CC3CC(C2)CC1C3 (stereo not drawn)	> 200
CCn1nc(NC(=O)NC23CC4CC(CC(C4)C2)C3)cc1C	> 200
CCn1nc(NC(=O)NC2C3CC4CC(C3)CC2C4)cc1C (stereo not drawn)	> 200

Tested on: Burkholderia cepacia
Test: microbe, parasite or virus in culture
Conditions: not given

SMILES	MIC [µg/mL]
O=C(Nc1nccs1)NC12CC3CC(CC(C3)C1)C2	> 200
O=C(Nc1nnc(C2CC2)o1)NC1C2CC3CC(C2)CC1C3 (stereo not drawn)	200 (≈ 661 µM)
CCn1nc(NC(=O)NC23CC4CC(CC(C4)C2)C3)cc1C	> 200
CCn1nc(NC(=O)NC2C3CC4CC(C3)CC2C4)cc1C (stereo not drawn)	> 200

Tested on: Bacillus subtilis
Test: microbe, parasite or virus in culture
Conditions: not given

SMILES	MIC [µg/mL]
O=C(Nc1nccs1)NC12CC3CC(CC(C3)C1)C2	> 200
O=C(Nc1nnc(C2CC2)o1)NC1C2CC3CC(C2)CC1C3 (stereo not drawn)	> 200
CCn1nc(NC(=O)NC23CC4CC(CC(C4)C2)C3)cc1C	> 200
CCn1nc(NC(=O)NC2C3CC4CC(C3)CC2C4)cc1C (stereo not drawn)	> 200

Tested on: Acinetobacter
Test: microbe, parasite or virus in culture
Conditions: not given

SMILES	MIC [µg/mL]
O=C(Nc1nccs1)NC12CC3CC(CC(C3)C1)C2	> 200
O=C(Nc1nnc(C2CC2)o1)NC1C2CC3CC(C2)CC1C3 (stereo not drawn)	> 200
CCn1nc(NC(=O)NC23CC4CC(CC(C4)C2)C3)cc1C	> 200
CCn1nc(NC(=O)NC2C3CC4CC(C3)CC2C4)cc1C (stereo not drawn)	> 200

Tested on: Streptococcus pneumoniae
Test: microbe, parasite or virus in culture
Conditions: not given

SMILES	MIC [µg/mL]
O=C(Nc1nccs1)NC12CC3CC(CC(C3)C1)C2	100 (≈ 360 µM)
O=C(Nc1nnc(C2CC2)o1)NC1C2CC3CC(C2)CC1C3 (stereo not drawn)	> 200
CCn1nc(NC(=O)NC23CC4CC(CC(C4)C2)C3)cc1C	> 200
CCn1nc(NC(=O)NC2C3CC4CC(C3)CC2C4)cc1C (stereo not drawn)	> 200

Tested on: Streptococcus pyogenes
Test: microbe, parasite or virus in culture
Conditions: not given

SMILES	MIC [µg/mL]
O=C(Nc1nccs1)NC12CC3CC(CC(C3)C1)C2	> 200
O=C(Nc1nnc(C2CC2)o1)NC1C2CC3CC(C2)CC1C3 (stereo not drawn)	> 200
CCn1nc(NC(=O)NC23CC4CC(CC(C4)C2)C3)cc1C	> 200
CCn1nc(NC(=O)NC2C3CC4CC(C3)CC2C4)cc1C (stereo not drawn)	> 200

Tested on: Staphylococcus aureus
Test: microbe, parasite or virus in culture
Conditions: NRS70

SMILES	MIC [µg/mL]
O=C(Nc1nccs1)NC12CC3CC(CC(C3)C1)C2	> 200
O=C(Nc1nnc(C2CC2)o1)NC1C2CC3CC(C2)CC1C3 (stereo not drawn)	> 200
CCn1nc(NC(=O)NC23CC4CC(CC(C4)C2)C3)cc1C	> 200
CCn1nc(NC(=O)NC2C3CC4CC(C3)CC2C4)cc1C (stereo not drawn)	> 200

Tested on: Staphylococcus aureus
Test: microbe, parasite or virus in culture
Conditions: ATCC 29213

SMILES	MIC [µg/mL]
O=C(Nc1nccs1)NC12CC3CC(CC(C3)C1)C2	> 200
O=C(Nc1nnc(C2CC2)o1)NC1C2CC3CC(C2)CC1C3 (stereo not drawn)	200 (≈ 661 µM)
CCn1nc(NC(=O)NC23CC4CC(CC(C4)C2)C3)cc1C	> 200
CCn1nc(NC(=O)NC2C3CC4CC(C3)CC2C4)cc1C (stereo not drawn)	100 (≈ 331 µM)

Tested on: Enterococcus faecalis
Test: microbe, parasite or virus in culture
Conditions: not given

SMILES	MIC [µg/mL]
O=C(Nc1nccs1)NC12CC3CC(CC(C3)C1)C2	> 200
O=C(Nc1nnc(C2CC2)o1)NC1C2CC3CC(C2)CC1C3 (stereo not drawn)	> 200
CCn1nc(NC(=O)NC23CC4CC(CC(C4)C2)C3)cc1C	> 200
CCn1nc(NC(=O)NC2C3CC4CC(C3)CC2C4)cc1C (stereo not drawn)	> 200

Tested on: Bacillus anthracis
Test: microbe, parasite or virus in culture
Conditions: Sterne

SMILES	MIC [µg/mL]
O=C(Nc1nccs1)NC12CC3CC(CC(C3)C1)C2	> 200
O=C(Nc1nnc(C2CC2)o1)NC1C2CC3CC(C2)CC1C3 (stereo not drawn)	> 200
CCn1nc(NC(=O)NC23CC4CC(CC(C4)C2)C3)cc1C	> 200
CCn1nc(NC(=O)NC2C3CC4CC(C3)CC2C4)cc1C (stereo not drawn)	> 200

Tested on: Mycobacterium tuberculosis
Test: microbe, parasite or virus in culture
Conditions: H37Rv, 168 h

SMILES	MIC [µg/mL]
O=C(Nc1nccs1)NC12CC3CC(CC(C3)C1)C2	3.13 (≈ 11.3 µM)
O=C(Nc1nnc(C2CC2)o1)NC1C2CC3CC(C2)CC1C3 (stereo not drawn)	3.13 (≈ 10.4 µM)
CCn1nc(NC(=O)NC23CC4CC(CC(C4)C2)C3)cc1C	12.5 (≈ 41.3 µM)
CCn1nc(NC(=O)NC2C3CC4CC(C3)CC2C4)cc1C (stereo not drawn)	3.13 (≈ 10.3 µM)

Source: ChEMBL document CHEMBL2390858, “Design, synthesis and anti-tuberculosis activity of 1-adamantyl-3-heteroaryl ureas with improved in vitro pharmacokinetic properties” (Bioorg Med Chem, 2013)
